ChEMBL document CHEMBL3137386, “DNDi T. cruzi fenarimol series dataset from which preclinical candidate EPL-BS1246 was identified (see also related datasets CHEMBL2448688 and CHEMBL3137440)”
In brackets after ≈: the same amount, converted by molar mass. Several values for one entry are separate records, joined by “and”; a condition that tells them apart may be missing. Equal values may be shown once. Values belong to the molecule of their own block, whether it stands above or below them.

Legend:
[1] = DNDI: Lipophilicity (gLogD) at pH 7.4; assay type: physicochemical; conditions: buffer
Trypanosoma cruzi [2] = experiment: (§1) DNDI: Chagas in vitro; assay type: functional, Tulahuen C4 (LacZ)
[3] = DNDI: Lipophilicity (gLogD) at pH 3; assay type: physicochemical; conditions: buffer
[4] = system: Trypanosoma brucei rhodesiense; experiment: DNDI: HAT in vitro; assay type: functional, organism-based; conditions: ATCC 30027
[5] = (§2) DNDI: Cytotoxicity against L-6 rat myoblasts from skeletal muscle; assay type: toxicity, cell-based, Muscle tissue, L6; conditions: rat, L6 rat skeletal muscle myoblasts
Cytochrome P450 3A4 [6] = molecular target: T1, Cytochrome P450 3A4 (Homo sapiens, UniProt P08684); experiment: (§3) DNDI: CYP Inhibition; assay type: ADME
T1 sequence (P08684 whole entry): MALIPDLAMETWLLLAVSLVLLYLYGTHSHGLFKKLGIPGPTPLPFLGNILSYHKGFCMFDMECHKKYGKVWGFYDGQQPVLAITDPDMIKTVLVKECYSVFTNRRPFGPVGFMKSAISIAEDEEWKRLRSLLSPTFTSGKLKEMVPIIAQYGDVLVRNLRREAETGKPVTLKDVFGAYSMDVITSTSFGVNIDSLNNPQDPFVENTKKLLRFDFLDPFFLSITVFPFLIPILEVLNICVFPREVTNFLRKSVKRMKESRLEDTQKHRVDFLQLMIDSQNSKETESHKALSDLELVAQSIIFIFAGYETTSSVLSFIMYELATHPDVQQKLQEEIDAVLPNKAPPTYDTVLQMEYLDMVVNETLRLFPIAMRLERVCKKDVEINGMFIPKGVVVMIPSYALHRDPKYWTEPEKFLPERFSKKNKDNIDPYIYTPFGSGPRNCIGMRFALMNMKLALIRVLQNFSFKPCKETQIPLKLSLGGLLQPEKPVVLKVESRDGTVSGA

[7] = DNDI: Solubility in 0.01M HCl at pH 2 determined by nephelometry; assay type: physicochemical; conditions: 0.01 M HCl
[8] = (§4) DNDI: Metabolism; assay type: ADME, Microsome; conditions: human, microsomes; for hepatic extraction ratio: read-out: EH
[9] = DNDI: Protein binding in mouse plasma; assay type: ADME, 10090; conditions: read-out: % bound (converted)
Cytochrome P450 3A4 [10] = molecular target: T1, Cytochrome P450 3A4; experiment: as §3; assay type: ADME; remark: listed apart in the source
[11] = DNDI: Lipophilicity (s.f. LogD) at pH 7.4; assay type: physicochemical; conditions: buffer
[12] = DNDI: Solubility, 24 hour, SGF - pH 1, 37C; assay type: physicochemical; conditions: read-out: Equilibrium
[13] = DNDI: Protein binding in human plasma; assay type: ADME; conditions: read-out: % bound (converted)
[14] = as §4; assay type: ADME, Canis lupus familiaris, 9615, Microsome; conditions: dog, microsomes
[15] = DNDI: Protein binding in human liver microsomes; assay type: ADME; conditions: read-out: % bound (converted)
[16] = DNDI: Protein binding in rat plasma; assay type: ADME, 10116; conditions: read-out: % bound (converted)
[17] = (§5) DNDI: Solubility, 24 hour, Isotonic phos buffer - pH 2; assay type: physicochemical; conditions: isotonic phosphate buffer, read-out: Equilibrium
[18] = as §4; assay type: ADME, 10116, Microsome; conditions: rat, microsomes
[19] = DNDI: Protein binding 10% serum RPMI; assay type: ADME; conditions: RPMI with 10% serum; read-out: % bound (converted)
[20] = as §5; assay type: physicochemical; conditions: isotonic phosphate buffer, read-out: Equilibrium; remark: listed apart in the source
[21] = (§6) DNDI: Solubility, 24 hour, FaSSIF, 37C; assay type: physicochemical; conditions: read-out: Equilibrium
[22] = DNDI: Lipophilicity (s.f. LogD) at pH 5; assay type: physicochemical; conditions: buffer
L6 = experiment: as §2; assay type: toxicity, cell-based, Muscle tissue; conditions: l6
Cytochrome P450 3A4 [23] = molecular target: T1, Cytochrome P450 3A4; experiment: as §3; assay type: ADME; remark: listed apart in the source
Cytochrome P450 3A4 [24] = molecular target: T1, Cytochrome P450 3A4; experiment: as §3; assay type: ADME; remark: listed apart in the source
[25] = as §4; assay type: ADME, 10090, Microsome; conditions: mouse, microsomes
[26] = DNDI: pKa; assay type: physicochemical
[27] = DNDI: Lipophilicity (s.f. LogD water); assay type: physicochemical
[28] = DNDI: Protein binding in dog plasma; assay type: ADME, Canis lupus familiaris, 9615; conditions: read-out: % bound (converted)
[29] = DNDI: Lipophilicity (s.f. LogD) at pH 2; assay type: physicochemical; conditions: buffer
[30] = as §6; assay type: physicochemical; conditions: read-out: Equilibrium; remark: listed apart in the source
Trypanosoma cruzi [31] = experiment: as §1; assay type: functional, organism-based, Tulahuen C4 (LacZ)
[32] = DNDI: Solubility, 24 hour, FaSSIF buffer - pH 5.8, 37C; assay type: physicochemical; conditions: read-out: Equilibrium
[33] = DNDI: Solubility, 24 hour, FaSSIF buffer - pH 6.5. 37C; assay type: physicochemical; conditions: read-out: Equilibrium
[34] = DNDI: Solubility in phosphate buffer at pH 6.5 determined by nephelometry; assay type: physicochemical
[35] = Trypanosoma cruzi, Tulahuen C4 (LacZ)

IC90 (Trypanosoma cruzi [2]; [35]): > 0.1 µM | IC50 [4]: > 10 µM | IC50 (Trypanosoma cruzi [31]; [35]): 0.0495 µM
SMILES: O=C(c1ccccc1)N1CCN(C(=O)C(c2ccc(Cl)cc2)c2cccnc2)CC1 (stereo not given)
IC50 [5]: > 100 µM

IC90 (Trypanosoma cruzi [2]; [35]): > 0.1 µM | IC50 [4]: > 10 µM | IC50 (Trypanosoma cruzi [31]; [35]): 0.051 µM
SMILES: O=C(C(c1ccc(Cl)cc1)c1cccnc1)N1CCN(c2nccs2)CC1 (stereo not given)
IC50 [5]: > 100 µM

IC90 (Trypanosoma cruzi [2]): 0.027 µM and 0.0715 µM and > 0.1 µM | chromatographic logD [3]: 3.5 | IC50 [4]: > 10 µM | IC50 (Trypanosoma cruzi [31]): 0.01 µM and 0.012 µM and 0.0675 µM | IC50 (Cytochrome P450 3A4 [6]): > 20 µM | solubility kinetic [7]: > 100 µg/mL | Clint [8]: 42 µL/min/mg and 38 µL/min/mg | EH [8]: 0.68 and 0.7 | half-life [8]: 50 min | microsomal CLint [8]: 35 µL/min/mg | t (1 / 2) [8]: 41 min and 45 min | hepatic extraction ratio [8]: 0.66
SMILES: N#Cc1ccc(C(C(=O)N2CCN(c3ccc(C(F)(F)F)cc3)CC2)c2cccnc2)cc1 (stereo not given)
IC50 [5]: 73.8 µM | IC50 (L6): 54.7 µM

chromatographic logD [1]: 3 | IC90 (Trypanosoma cruzi [2]): 0.0815 µM | IC90 (Trypanosoma cruzi [2]; [35]): > 0.1 µM | chromatographic logD [3]: 2.5 | IC50 [4]: > 10 µM | IC50 (Trypanosoma cruzi [31]): 0.055 µM and > 0.1 µM and 0.0205 µM | IC50 (Cytochrome P450 3A4 [6]): > 20 µM | solubility kinetic [34]: 12.5 µg/mL (≈ 27.7 µM) | solubility kinetic [7]: > 100 µg/mL | Clint [8]: 22 µL/min/mg and 21 µL/min/mg | EH [8]: 0.56 and 0.54 | half-life [8]: 144 min | microsomal CLint [8]: 12 µL/min/mg | t (1 / 2) [8]: 77 min and 81 min | hepatic extraction ratio [8]: 0.4
SMILES: N#Cc1ccc(C(C(=O)N2CCN(c3ccc(C(F)(F)F)nc3)CC2)c2cccnc2)cc1 (stereo not given)
IC50 [5]: > 100 µM

Further lines, the molecule ahead of its results:

SMILES: CS(=O)(=O)c1ccc(N2CCN(C(=O)C(c3ccc(C#N)cc3)c3cccnc3)CC2)cc1 (stereo not given)
chromatographic logD [1]: 2.3 | IC90 (Trypanosoma cruzi [2]): > 0.1 µM and 0.0291 µM | chromatographic logD [3]: 1.8 | IC50 [4]: > 10 µM | IC50 [5]: > 100 µM | IC50 (Cytochrome P450 3A4 [6]): > 20 µM | solubility kinetic [7]: > 100 µg/mL | Clint [8]: 15 µL/min/mg and 10 µL/min/mg and < 7 µL/min/mg | EH [8]: 0.36 and < 0.28 | t (1 / 2) [8]: 113 min and 169 min and > 250 min | hepatic extraction ratio [8]: 0.46

SMILES: O=C(C(c1ccc(Cl)cc1)c1cccnc1)N1CCN(c2ccc(C(F)(F)F)cc2)CC1 (stereo not given)
fraction unbound [9]: 0.014 | IC50 (Cytochrome P450 3A4 [10]): 1.2 µM | logD [11]: 5.54 | solubility thermodynamic at 24 h [12]: 1500 µg/mL (≈ 3260 µM) | fraction unbound [13]: 0.025 | half-life [14]: 130 min | microsomal CLint [14]: 13 µL/min/mg | hepatic extraction ratio ([14]; read-out: EH): 0.38 | chromatographic logD [1]: 4.5 | fraction unbound [15]: 0.023 | IC90 (Trypanosoma cruzi [2]): 0.01 µM and 0.0475 µM | chromatographic logD [3]: 4.1 | fraction unbound [16]: 0.027 | IC50 [4]: > 10 µM | solubility thermodynamic at 24 h [17]: < 1 µg/mL | half-life [18]: 46 min | microsomal CLint [18]: 38 µL/min/mg | hepatic extraction ratio ([18]; read-out: EH): 0.55 | fraction unbound [19]: 0.076 | solubility thermodynamic at 24 h [20]: 127 µg/mL (≈ 276 µM) | solubility thermodynamic at 24 h [21]: 75.9 µg/mL (≈ 165 µM) | logD [22]: 5.47 | IC50 [5]: 37.7 µM | IC50 (L6): 42.4 µM | IC50 (Cytochrome P450 3A4 [23]): 20 µM | IC50 (Cytochrome P450 3A4 [24]): 7.4 µM | half-life [25]: 30 min | microsomal CLint [25]: 59 µL/min/mg | hepatic extraction ratio ([25]; read-out: EH): 0.72 | pKa [26]: 2.62 | logD [27]: 5.44 | fraction unbound [28]: 0.012 | logD [29]: 2.71 | solubility thermodynamic at 24 h [30]: 1.3 µg/mL (≈ 2.83 µM) | IC50 (Trypanosoma cruzi [31]): 0.007 µM | IC50 (Trypanosoma cruzi [31]; [35]): 0.01 µM | solubility thermodynamic at 24 h [32]: < 1 µg/mL | solubility kinetic [7]: > 100 µg/mL | half-life [8]: 85 min | microsomal CLint [8]: 20 µL/min/mg | hepatic extraction ratio [8]: 0.53 | solubility thermodynamic at 24 h [33]: < 1 µg/mL

SMILES: CC(C)CN1CCN(C(=O)C(c2ccc(Cl)cc2)c2cccnc2)CC1 (stereo not given)
IC90 (Trypanosoma cruzi [2]; [35]): > 0.1 µM | IC50 [4]: > 10 µM | IC50 [5]: > 100 µM | IC50 (Trypanosoma cruzi [31]; [35]): 0.065 µM

SMILES: COCCN1CCN(C(=O)C(c2ccc(Cl)cc2)c2cccnc2)CC1 (stereo not given)
IC90 (Trypanosoma cruzi [2]; [35]): > 0.1 µM | IC50 [4]: > 10 µM | IC50 [5]: > 100 µM | IC50 (Trypanosoma cruzi [31]; [35]): > 0.1 µM

SMILES: O=C(C(c1ccc(Cl)cc1)c1cccnc1)N1CCN(Cc2cccc(C(F)(F)F)c2)CC1 (stereo not given)
IC90 (Trypanosoma cruzi [2]; [35]): > 0.1 µM | IC50 [4]: > 10 µM | IC50 (Trypanosoma cruzi [31]; [35]): 0.0149 µM

SMILES: O=C(C(c1ccc(Cl)cc1)c1cccnc1)N1CCN(c2ccc(C(F)(F)F)nc2)CC1 (stereo not given)
IC90 (Trypanosoma cruzi [2]): > 0.1 µM and 1.03 µM | chromatographic logD [3]: 3.2 | IC50 [4]: > 10 µM | IC50 [5]: 66.8 µM | IC50 (Cytochrome P450 3A4 [23]): 20 µM | IC50 (Cytochrome P450 3A4 [6]): > 20 µM | solubility kinetic [7]: > 100 µg/mL | Clint [8]: 36 µL/min/mg and 61 µL/min/mg | EH [8]: 0.77 and 0.7 | half-life [8]: 41 min | microsomal CLint [8]: 42 µL/min/mg | t (1 / 2) [8]: 49 min and 28 min | hepatic extraction ratio [8]: 0.67
